# Experimental data from ChEMBL document CHEMBL5357027, “Annonaceous Acetogenins Synergistically Inhibit Hepatocellular Carcinoma with Sorafenib” (J Nat Prod, 2024).
# Calls of active or inactive are those of the source. No cut-off for these calls is given here.
# How the values were obtained:
# HepG2 [1] = assay: Cytotoxicity against human HepG2 cells assessed as cell growth inhibition incubated for 48 hrs by MTT assay; assay type: functional, cell-based; conditions: HepG2, 48 h
# MHCC97H [2] = assay: Cytotoxicity against human MHCC97H cells assessed as cell growth inhibition incubated for 48 hrs by MTT assay; assay type: functional, cell-based
# Huh-7 [3] = assay: Cytotoxicity against human Huh-7 cells assessed as cell growth inhibition incubated for 48 hrs by MTT assay; assay type: functional, cell-based; conditions: Huh-7, 48 h
# HepG2 [4] = assay: Synergistic cytotoxicity against human HepG2 cells assessed as cell growth inhibition by measuring synergy score at 1 to 16 uM incubated for 48 hrs in presence of sorafenib at 1 to 16 uM by MTT assay; assay type: functional; conditions: dose 1-16 µM
# HCCLM3 [5] = assay: Synergistic cytotoxicity against human HCCLM3 cells assessed as cell growth inhibition by measuring synergy score at 1 to 16 uM incubated for 48 hrs in presence of sorafenib at 1 to 16 uM by MTT assay; assay type: functional; conditions: dose 1-16 µM
# HCCLM3 [6] = assay: Cytotoxicity against human HCCLM3 cells assessed as cell growth inhibition incubated for 48 hrs by MTT assay; assay type: functional, cell-based; conditions: HCCLM3, 48 h
# Huh-7 [7] = assay: Synergistic cytotoxicity against human Huh-7 cells assessed as cell growth inhibition by measuring synergy score at 1 to 16 uM incubated for 48 hrs in presence of sorafenib at 1 to 16 uM by MTT assay; assay type: functional; conditions: dose 1-16 µM
# MHCC97H [8] = assay: Synergistic cytotoxicity against human MHCC97H cells assessed as cell growth inhibition by measuring synergy score at 1 to 16 uM incubated for 48 hrs in presence of sorafenib at 1 to 16 uM by MTT assay; assay type: functional; conditions: dose 1-16 µM
# HCCLM3 [9] = assay: Inhibition of mitochondrial respiratory chain complex I in human HCCLM3 incubated for 24 hrs; assay type: cell-based
# HCCLM3 [10] = assay: Induction of apoptosis in human HCCLM3 cells assessed as viable cells at 4 uM incubated for 48 hrs by Annexin V/FITC-PI staining based flow cytometry (reference value: 96.55%); assay type: functional; conditions: read-out: Activity
# Huh-7 [11] = assay: Inhibition of mitochondrial function in human Huh-7 cells assessed as reduction in ATP production at 16 uM incubated for 48 hrs relative to control; assay type: functional; set-up: scale not given: the % may be the effect or the level left
# HepG2 [12] = assay: Inhibition of mitochondrial function in human HepG2 cells assessed as reduction in ATP production at 16 uM incubated for 48 hrs relative to control; assay type: functional; set-up: scale not given: the % may be the effect or the level left
# HCCLM3 [13] = assay: Induction of apoptosis in human HCCLM3 cells assessed as late apoptotic cells at 4 uM incubated for 48 hrs by Annexin V/FITC-PI staining based flow cytometry (reference value: 0.07%); assay type: functional
# HCCLM3 [14] = assay: Inhibition of mitochondrial function in human HCCLM3 cells assessed as reduction in ATP production at 16 uM incubated for 48 hrs relative to control; assay type: functional; set-up: scale not given: the % may be the effect or the level left
# HCCLM3 [15] = assay: Induction of apoptosis in human HCCLM3 cells assessed as necrotic cells at 4 uM incubated for 48 hrs by Annexin V/FITC-PI staining based flow cytometry (reference value: 3.33%); assay type: functional
# MHCC97H [16] = assay: Inhibition of mitochondrial function in human MHCC97H cells assessed as reduction in ATP production at 16 uM incubated for 48 hrs relative to control; assay type: functional; set-up: scale not given: the % may be the effect or the level left
# HCCLM3 [17] = assay: Induction of apoptosis in human HCCLM3 cells assessed as early apoptotic cells at 4 uM incubated for 48 hrs by Annexin V/FITC-PI staining based flow cytometry (reference value: 0.05%); assay type: functional
Structure (SMILES),IC50 (HepG2 [1]) [µM],IC50 (MHCC97H [2]) [µM],IC50 (Huh-7 [3]) [µM],Activity (HepG2 [4]),Activity (HCCLM3 [5]),IC50 (HCCLM3 [6]) [µM],Activity (Huh-7 [7]),Activity (MHCC97H [8]),inhibition (HCCLM3 [9]),viability at 4 µM (HCCLM3 [10]) [%],Activity (Huh-7 [11]) [%],Activity (HepG2 [12]) [%],Activity (HCCLM3 [13]) [%],Activity (HCCLM3 [14]) [%],Activity (HCCLM3 [15]) [%],Activity (MHCC97H [16]) [%],Activity (HCCLM3 [17]) [%]
CCCCCCCCCCCC[C@H](O)[C@@H]1CC[C@H]([C@H](O)CCCC[C@@H](O)CCCCC[C@@H](O)CC2=C[C@H](C)OC2=O)O1,7.1,7.1,7.1,2.3,2.3,7.1,2.3,2.3,Active,,,,,,,,
CNC(=O)c1cc(Oc2ccc(NC(=O)Nc3ccc(Cl)c(C(F)(F)F)c3)cc2)ccn1 [SORAFENIB],,,,,,,,,,94.2,41.1,69.5,0.67,77.4,1.57,54.4,3.59
CCCCCCCCCCCC[C@H](O)[C@@H]1CC[C@H]([C@H](O)CCCCC(=O)CCCCC[C@@H](O)CC2=C[C@H](C)OC2=O)O1,15,15,15,0.7,0.7,15,0.7,0.7,Active,,,,,,,,
CCCCCCCCCCCC[C@@H](O)[C@H]1CC[C@H]([C@H](O)CCCC(O)CCCCCC[C@@H](O)CC2=C[C@H](C)OC2=O)O1 (stereo not given in full),10,10,10,2,2,10,2,2,Active,,,,,,,,
